Measured values published in patent publication EP1074549B1, “Tetrahydro-benzo(d)azepines and their use as antagonists at metabotropic glutamate receptors” (F. HOFFMANN-LA ROCHE AG, priority 1999, dated 2001).

Assays:
[1] = target: T1, rat mGluR1a receptor (Rattus norvegicus, UniProt P23385); experiment: functional assay for the characterization of mGluR 1 antagonistic properties ([Ca2+]i measurement, FLIPR); assay type: cell-based; settings: mGluR1a transfected HEK-EBNA cells; 10 µM glutamate as agonist; antagonists applied 5 minutes prior to agonist; read-out: F-IC 50
T1 construct: expressed in transfected cells; host or cells: HEK 293 cells (transient transfection), membrane preparation
Protocol: a) functional assay for the characterization of mGluR 1 antagonistic properties
cDNA encoding rat mGluR1a receptor obtained from Prof. S. Nakanishi (Kyoto, Japan) was transiently transfected into HEK-EBNA cells using a procedure described by Schlaeger et. al., New Dev. New Appl. Anim. Cell Techn., Proc. ESACT Meet., 15th ( 1998), 105-112 and 117-120. [Ca^2+]i measurements were performed on mGluR1a transfected HEK-EBNA cells after incubation of the cells with Fluo-3 AM (0.5 µM final concentration) for 1 hour at 37 °C followed by 4 washes with assay buffer (DMEM supplemented with Hank's salt and 20 mM HEPES. [Ca^2+]i measurements were done using a fluorometric imaging plate reader (FLIPR, Molecular Devices Corporation, La Jolla, CA, USA). 10 µM glutamate as agonist was used to evaluate the potency of the antagonists.
Increasing concentrations of antagonists were applied to the cells 5 minutes prior to the application of the agonist. The inhibition (antagonists) curves were fitted with a four parameter logistic equation giving IC50, and Hill coefficient using the iterative nonlinear curve fitting software Origin (Microcal Software Inc., Northampton, MA, USA).

[2] = target: T1, rat mGluR1a receptor; experiment: binding assay for the characterization of mGluR 1 antagonistic properties (tritiated radioligand displacement); settings: membranes from HEK 293 cells transfected with rat mGluR1a; tritiated 1-ethyl-2-methyl-6-oxo-4-(1,1,2-tritritio-1,2,4,5-tetrahydro-benzo[d]azepin-3-yl)-1,6-dihydro-pyrimidine-5-carbonitrile at 3 nM; 1 hour at room temperature; read-out: B-IC 50
Protocol: b) binding assay for the characterization of mGluR 1 antagonistic properties
Binding assay with tritiated 1-ethyl-2-methyl-6-oxo-4-(1,1,2-tritritio-1,2,4,5-tetrahydro-benzo[d]azepin-3-yl)-1,6-dihydro-pyrimidine-5-carbonitrile: HEK 293 cells were transiently transfected with the rat mGluR1a receptor. The cells were collected and washed 3 times with PBS. The cell pellets were frozen at -80 °C. Membranes were prepared from HEK 293 cells transfected with the rat mGluR1a receptor and used in the binding experiments at 10 µg proteins per assay after resuspension in a HEPES NaOH 20mM, pH=7.4 binding buffer. 1-Ethyl-2-methyl-6-oxo-4-(1,1,2-tritritio-1,2,4,5-tetrahydro-benzo[d]azepin-3-yl)-1,6-dihydro-pyrimidine-5-carbonitrile (S.A 33.4Ci/mmol) was used at 3 nM final concentration. The incubation with variable concentrations of potential inhibitors was performed for 1 hour at room temperature, the incubate was then filtered onto GF/B glass fiber filter preincubated 1 hour in PEI 0,1% and washed 3 times with 1ml of cold binding buffer. The radioactivity retained on the unifilter 96 was counted using a Topcount β counter. After correction for non specific binding the data were normalized and the IC50 value calculated using a 4 parameters logistic equation which was fitted to the inhibition curve.

T1 sequence (P23385 19-1199): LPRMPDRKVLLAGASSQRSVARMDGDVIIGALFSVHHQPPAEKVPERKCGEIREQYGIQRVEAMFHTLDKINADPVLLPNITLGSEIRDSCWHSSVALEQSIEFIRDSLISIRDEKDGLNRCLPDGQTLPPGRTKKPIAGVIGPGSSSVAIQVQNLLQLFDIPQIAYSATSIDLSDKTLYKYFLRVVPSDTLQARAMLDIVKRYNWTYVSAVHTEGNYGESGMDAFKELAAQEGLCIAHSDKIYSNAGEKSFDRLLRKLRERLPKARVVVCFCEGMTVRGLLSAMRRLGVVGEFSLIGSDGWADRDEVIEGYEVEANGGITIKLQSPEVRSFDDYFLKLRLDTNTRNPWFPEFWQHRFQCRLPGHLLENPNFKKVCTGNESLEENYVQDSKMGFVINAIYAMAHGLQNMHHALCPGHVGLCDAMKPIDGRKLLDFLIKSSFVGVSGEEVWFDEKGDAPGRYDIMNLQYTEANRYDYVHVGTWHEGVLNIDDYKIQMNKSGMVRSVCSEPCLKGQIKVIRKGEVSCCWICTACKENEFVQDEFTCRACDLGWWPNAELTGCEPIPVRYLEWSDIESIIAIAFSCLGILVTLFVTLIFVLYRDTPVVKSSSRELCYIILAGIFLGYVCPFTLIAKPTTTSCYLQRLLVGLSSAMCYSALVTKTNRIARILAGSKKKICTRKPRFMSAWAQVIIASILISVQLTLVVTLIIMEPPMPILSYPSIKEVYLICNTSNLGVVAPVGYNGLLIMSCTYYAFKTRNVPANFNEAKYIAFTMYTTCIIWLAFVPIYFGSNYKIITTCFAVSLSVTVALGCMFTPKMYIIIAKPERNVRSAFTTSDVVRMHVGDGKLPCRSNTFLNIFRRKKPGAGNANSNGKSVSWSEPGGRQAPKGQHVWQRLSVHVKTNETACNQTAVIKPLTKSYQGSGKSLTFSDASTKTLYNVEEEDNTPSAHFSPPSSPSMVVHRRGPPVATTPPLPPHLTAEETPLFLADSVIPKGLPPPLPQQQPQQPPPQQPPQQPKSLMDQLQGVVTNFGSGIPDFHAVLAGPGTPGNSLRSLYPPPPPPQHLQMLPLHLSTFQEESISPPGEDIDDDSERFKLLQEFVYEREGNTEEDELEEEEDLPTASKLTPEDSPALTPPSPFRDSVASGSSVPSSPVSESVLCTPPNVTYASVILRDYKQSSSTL

| IC50 [1] | IC50 [2] | SMILES |
| --- | --- | --- |
| 14 nM | 80 nM | CCn1c(C)nc(N2CCc3ccc(F)cc3CC2)c([N+](=O)[O-])c1=O [Example 132, 3-Ethyl-6-(7-fluoro-1,2,4,5-tetrahydro-benzo[d]azepin-3-yl)-2-methyl-5-nitro-3H-pyrimidin-4-one] |
| 100 nM | 720 nM | N#Cc1c(N2CCc3ccccc3CC2)nc2n(c1=O)CCC2 [Example 126, 4-Oxo-2-(1,2,4,5-tetrahydro-benzo[d]azepin-3-yl)-4,6,7,8-tetrahydro-pyrrolo[1,2-a]pyrimidine-3-carbonitrile] |
| 120 nM | 20 nM | CNn1c(C)nc(N2CCc3ccccc3CC2)c(C#N)c1=O [Example 214, 2-Methyl-1-methylamino-6-oxo-4-(1,2,4,5-tetrahydro-benzo[d]azepin-3-yl)-1,6-dihydro-pyrimidine-5-carbonitrile] |
| 8 nM | 18 nM | Cc1nc(N2CCc3ccccc3CC2)c([N+](=O)[O-])c(=O)n1CC(F)(F)F [Example 11, 2-Methyl-5-nitro-6-(1,2,4,5-tetrahydro-benzo[d]azepin-3-yl)-3-(2,2,2-trifluoro-ethyl)-3H-pyrimidin-4-one] |
| 970 nM | 88 nM | N#Cc1c(OCC(F)(F)F)nc(NCCCN2CCOCC2)nc1N1CCc2ccccc2CC1 [Example 174, 2-(3-Morpholin-4-yl-propylamino)-4-(1,2,4,5-tetrahydro-benzo[d]azepin-3-yl)-6-(2,2,2-trifluoro-ethoxy)-pyrimidine-5-carbonitrile] |
| 23 nM | 11 nM | CSc1nc(N)nc(N2CCc3ccccc3CC2)c1C#N [Example 249, 2-Amino-4-methylsulfanyl-6-(1,2,4,5-tetrahydro-benzo[d]azepin-3-yl)-pyrimidine-5-carbonitrile] |
| 88 nM | 330 nM | Cc1nc(N2CCc3ccccc3CC2)c(C#N)c(=O)[nH]1 [Example 17, 2-Methyl-6-oxo-4-(1,2,4,5-tetrahydro-benzo[d]azepin-3-yl)-1,6-dihydro-pyrimidine-5-carbonitrile] |
| 26 nM | 11 nM | Cc1nc(N2CCc3ccccc3CC2)c(C#N)c(=O)n1CC(F)(F)F [Example 78, 2-Methyl-6-oxo-4-(1,2,4,5-tetrahydro-benzo[d]azepin-3-yl)-1-(2,2,2-trifluoro-ethyl)-1,6-dihydro-pyrimidine-5-carbonitrile] |
| 5 nM | 15 nM | CCNc1nc(N2CCc3ccccc3CC2)c(C#N)c(=O)[nH]1 [Example 25, 2-Ethylamino-6-oxo-4-(1,2,4,5-tetrahydro-benzo[d]azepin-3-yl)-1,6-dihydro-pyrimidine-5-carbonitrile] |
| 210 nM | 10 nM | CCn1c(NC=O)nc(N2CCc3ccccc3CC2)c(C#N)c1=O [Example 154, N-[5-cyano-1-ethyl-6-oxo-4-(1,2,4,5-tetrahydro-benzo[d]azepin-3-yl)-1,6-dihydro-pyrimidin-2-yl]-formamide] |
| 38 nM | 2 nM | Cc1nc(N2CCc3ccccc3CC2)c(C#N)c(=O)n1OCC(F)(F)F [Example 220, 2-Methyl-6-oxo-4-(1,2,4,5-tetrahydro-benzo[d]azepin-3-yl)-1-(2,2,2-trifluoro-ethoxy)-1,6-dihydro-pyrimidine-5-carbonitrile] |
| 9 nM | 3 nM | CCn1c(N)nc(N2CCc3ccccc3CC2)c(C#N)c1=O [Example 30, 2-Amino-1-ethyl-6-oxo-4-(1,2,4,5-tetrahydro-benzo[d]azepin-3-yl)-1,6-dihydro-pyrimidine-5-carbonitrile] |
| 200 nM | 7 nM | N#Cc1c(OCC(F)(F)F)nc(NCCO)nc1N1CCc2ccccc2CC1 [Example 190, 2-(2-Hydroxy-ethylamino)-4-(1,2,4,5-tetrahydro-benzo[d]azepin-3-yl)-6-(2,2,2-trifluoro-ethoxy)-pyrimidine-5-carbonitrile] |
